# Measured values taken from patent publication US6602852B1, “Basic peptides and pharmaceutical compositions containing same” (NST NeuroSurvival Technologies, Ltd., priority 1998, dated 2003).
# Tests used:
# [1] = test system: thrombin generation on apoptotic HeLa cells
# Description: One of the final steps of both intrinsic and extrinsic pathways of coagulation, is the generation of thrombin from prothrombin. Thrombin is the final protease generated in the sequence of coagulation reaction, and its activity entails conversion of fibrinogen to fibrin, that forms the clot. Generation of thrombin on the pro-coagulant surface of apoptotic cells was assayed (according to Bombeli T. et al., 1997, Blood 89(7), 2429-2442), by determining its activity, using the chromogenic substrate S-2366 (from Chromogenix, Sweden). Samples of pro-coagulant cells (HeLa cells treated with 500 μM of DA for 18 hours) were used for the assay.
# BeWo cells = test system: BeWo cells
# Description: (§1) Anti β2GPI antibodies are present in sera of APS patients. […] For cell-ELISA tests, HUVEC cells or BeWo cells (both at 40,000/well), were plated on 96 well tissue culture plates (Nunc) in 200 ul of the culture medium, and allowed to grow for 18-22 hours. Following 2 washes with Hepes buffer (10 mM Hepes pH, 8, 140 mM NaCl) and 5 min incubation with the culture medium, the wells were incubated for 3 hr with 10% of normal plasma in PBS (as a source of β2GPI protein), supplemented with 1/500 of goat anti-human Apolipoprotein-H (β2GPI) (Affinity Biologicals, Pa.) Parallel control wells were incubated with 10% of normal plasma from Ilex. Serial dilutions of NST compounds were prepared in plasma/PBS. Washes and development were as described for anti CL ELISA.
# HUVEC cells = test system: HUVEC cells
# Description: as §1
# [2] = test system: procoagulant activity of apoptotic HeLa S3 cells; details: 0.5 μM
# Description: In the standard APTT test, clot formation is triggered by recalcification of plasma and addition of cephalin, i.e. negatively-charged phospholipids. Time until clot formation was measured as described in Example 3. […] In the modified APTT test, used in the present study, the addition of negatively-charged phospholipids (cephalin) was replaced by addition of apoptotic cells.
# The cultured medium was discarded, and cells that were loosely attached to the growing surface, were collected in PBS, as described in Example 2B. These cells were washed and resuspended in TBS, and were regarded as advanced apoptotic cells. Equal numbers of apoptotic or control non-treated cells (10^5) in a volume of 100 μl, were mixed with 100 μl of 25 mM of CaCl2 and the clotting time was measured. […] Inhibition of their procoagulant activity by NST300 compounds was tested following pre-incubation of apoptotic cells with the different NST300 compounds.
# Pre-incubation of equal numbers of apoptotic or control non-treated cells (10^5) with NST300 compounds was for 10 minutes at room temperature in a final volume of 100 μl. The compounds were used at concentration of 0.5 μM. The results can be seen in FIG. 5a.
# [3] = test system: Human Umbilical Vein Endothelial Cells (HUVEC); details: 500 ng of compound, 40 minutes
# Description: HUVEC (CC-2517, obtained from Clonetics, Walkersville, Md.) were grown on tissue culture flasks in Endothelial cell medium (EGM-2 Bulletkit, CC 3162, Clonetics). Mid-confluent cultures were harvested using Trypsine/EDTA solution (CC-5012, Clonetics). The cells were rinsed twice with PBS containing 2% BSA and kept on ice. Samples of 10^6 cells were tested for binding.
# The reactions were incubated at room temperature for 40 minutes and then 400 μl of TBS-BSA were added and cells were collected by centrifugation at 3000×g for 3 minutes. Cells were washed in 1 ml of TBS-BSA and centrifuged as before and then suspended in 100 μl of TBS-BSA containing streptavidin conjugated to flourescein (FITC) for detection of the bound biotinylated compound. […] Thereafter, 400 μl of TBS-BSA were added and cells were centrifuged and washed again with 1 ml of TBS-BSA as before and then resuspended in 400 μl of TSS and taken for FACS analysis.
# The FACS analysis was performed on Beckton-Dickinson cell sorter, using lysis II software. Excitation was at 488 nm and emission for FITC detection was a 535 nm.
# A dot plot analysis was done for each treatment.
substance,measurement,setting,value
Myristate-KKKKKRFSFKKSFKLSGFSFKKNKKK (SEQUENCE ID NO. 2)-(biotin) [NST302],delay factor of time needed to achieve 50% of thrombin activity,[1]; 25 μM,2.25
same,time needed to achieve 50% of thrombin activity,[1]; 25 μM,4.5 min
same,rate of thrombin activity and lag time for activating the reaction,[1]; 5-25 μM,delayed
same,concentration at which inhibition of thrombin generation is observed already,[1]; 5-25 μM tested,5 µM
same,concentration of maximum effect of displacement of anti β2GPI,BeWo cells,50 µM
same,blocking of binding to pro-coagulant surface of cells,BeWo cells; FIG. 6e,dramatic and significant ability to block binding
same,concentration of maximum effect of displacement of anti β2GPI,HUVEC cells,50 µM
same,blocking of binding to pro-coagulant surface of cells,HUVEC cells; FIG. 6d,dramatic and significant ability to block binding
same,effect on procoagulant effect of apoptotic cells,[2]; FIG. 5a,fully reversing
same,increase of clotting time by a factor,[2]; apoptotic cells,2
same,cells FITC positive,[3],About 70%
